# Data as given in patent US20240156972A1 (priority 2021, published 2024).
# Numbered stars: 1 amine (or outer) side, 2 acyl side, 3 side chain; on linkers, the order of the positions; unused ones are H or OH. Square brackets hold non-standard residues; d marks the D form. Peptide text beside a SMILES is read from it. X1 = O=C(C(Cc1cccc(S(=O)(=O)F)c1)N[*:1])[*:2]; Lys(N3) = [N-]=[N+]=NCCCC[C@H](N)C(=O)O; X2 = N=C(N)CCCC[C@H](N[*:1])C(=O)[*:2]; Y‑OSO2F = fluorosulfate Tyr; N3‑K = azido-Lys
# Columns and labels:
# [1] = system: PSMA-expressing human embryonic kidney (HEK) cells; experiment: ARM 1.2-mediated ADCP by U937 human monocytes, 2-color flow cytometry; type: cell-based
# Experimental: ADCP of PSMA-expressing human cells by human monocytes was assessed in the presence of ARM 1.2 and anti-gD1 mouse IgG2a antibody (FIG. 12). ADCP was determined by 2-color flow cytometry assays, where target cell phagocytosis was measured by double positive cell events consisting of FL-1 dye-labeled U937 human monocytes and FL-4 dye-labeled engineered human embryonic kidney (HEK) cells expressing PSMA.
# Robust ADCP was only observed when cell surface PSMA and anti-HSV antibody are both present (HEK+_EXP).
# [2] = Stability of covalent antibody-binding peptides in 1×PBS by LC-HRMS; type: physicochemical; settings: 500 μM, room temperature
# Experimental: Liquid chromatography-high resolution mass spectrometry (LC-HRMS) data was obtained on a BRUKER MicroTOF II mass spectrometer. Samples were dissolved in 1×PBS at 500 μM concentrations and were monitored for stability at room temperature over indicated periods of time. Specific m/z −20 amu (loss of H^+ and F^−) and m/z −2 amu (F/OH exchange) masses were monitored to probe off-pathway cyclization and hydrolysis reactions, respectively.
# To evaluate the stability of peptide 5 (gDR(F10FSY)), the peptide (500 μM) was incubated in 1×PBS at room temperature and analyzed by LC-HRMS at 0, 24, 48 and 72 hours (FIG. 83). […] Hydrolyzed peptide appeared to elute just before intact peptide after 3 days of incubation.
# To evaluate the stability of peptide 7 (ASF-gDR), the peptide (500 μM) was incubated in 1×PBS at room temperature and analyzed by LC-HRMS at 0, 24, 48 and 72 hours.
# [3] = Stability of aryl sulfonyl fluoride group in PBS by 19F NMR; type: physicochemical; settings: PBS (90% PBS), 10% D2O, room temperature, F− appearance, read-out: half-life of sulfonyl fluoride hydrolysis (converted)
# Experimental: A 700 MHz NMR was used to measure ^19F NMR spectra. Bruker TopSpin 4.0.9 was used to process and analyze spectra. GraphPad Prism 8 software was used to visualize and perform non-linear regression of acquired data.
# Peptide 7 (ASF-gDR) was used to investigate the stability of the meta-aryl sulfonyl fluoride (ASF) group in 1×PBS at room temperature. The sample was prepared at a 0.5 mM concentration in 90% PBS, 10% D2O. A 700 MHz NMR was used to monitor sulfonyl fluoride disappearance and fluoride (F^− (aq)) appearance overtime, relative to a TFA internal standard. To quantify fluoride loss and gain, peaks were positively phased and integrated relative to the TFA internal standard, which was held constant at three fluoride atoms. A plot of fluoride leaving group appearance over time was fitted with the first order decay equation.
# Half-life was calculated from a plot of integrated F^− over time using Equation 1.
compound,measurement,setting,value
"CSCC[C@H](NC(=O)[C@@H](C)NC(=O)[C@@H](CC(=O)O)NC(=O)[C@H]1CCCN1C(=O)[C@@H](CC(N)=O)NC(=O)[C@H](CCCNC(=N)N)NC(=O)[C@@H](Cc1ccccc1)NC(=O)[C@H](CCCNC(=N)N)NC(=O)CNC(=O)[C@H](CCCCN)NC(=O)[C@@H](CC(=O)O)NC(=O)[C@H](CC(C)C)NC(=O)[C@H](CCCCn1cc(COCCOCCOCCOCCOCCOCCOCCOCCNC(=O)NCCCC[C@H](NC(=O)N[C@@H](CCC(=O)O)C(=O)O)C(=O)O)nn1)NC(C)=O)C(=O)N[C@H](CCCCN)C(=O)N[C@@H](CC(C)C)C(N)=O [ARM 1.2, GUL-PEG8-HSVqD1]",ADCP,[1]; HEK+_EXP: cell surface PSMA and anti-HSV antibody both present,Robust ADCP
same,ADCP in control samples,"[1]; isotype IgG, no antibody, free competitor, or HEK cells without PSMA",complete lack of ADCP
Ac-(N3-K)-LRMADPNR-(Y-OSO2F)-RGRDL ({Ac-N3‑K}-LRMADPNR-{Y‑OSO2F-Arg-Gly-Arg-Asp-Leu-NH2}) [Peptide 5],stability by LC-HRMS,[2]; 0-72 hours,stable compound
CSCC[C@H](NC(=O)[C@H](CCCCC(=N)N)NC(=O)[C@H](CC(C)C)NC(=O)[C@H](CCCCN=[N+]=[N-])NC(=O)C(Cc1cccc(S(=O)(=O)F)c1)NC(C)=O)C(=O)N[C@@H](C)C(=O)N[C@@H](CC(=O)O)C(=O)N1CCC[C@H]1C(=O)N[C@@H](CC(N)=O)C(=O)N[C@@H](CCCNC(=N)N)C(=O)N[C@@H](Cc1ccccc1)C(=O)N[C@@H](CCCNC(=N)N)C(=O)NCC(=O)N[C@@H](CCCNC(=N)N)C(=O)N[C@@H](CC(=O)O)C(=O)N[C@@H](CC(C)C)C(N)=O (some centres unmarked) [Peptide 7] (Ac-[X1][Lys(N3)]L[X2]MADPNRFRGRDL-NH2),half-life at 0.5 mM,[3],8.71 h
same,SuFEx hydrolysis,[2]; after 24 hours,~50%
